Data set [1] relates to HeLa cells. The data set is described as follows: Cytotoxicity assay in HeLa cells (MTT dye reduction, CC50). As for the experimental part: • Virus production—Human embryonic Kidney cell line, 293, propagated in Dulbecco's Modified Eagle Medium (Life Technologies, Gaithersburg, Md.) containing 10% fetal Bovine serum (FBS, Sigma, St. Louis, Mo.). • Virus infection—Human epithelial cell line, HeLa, expressing the HIV-1 receptors CD4 and CCR^5 was propagated in Dulbecco's Modified Eagle Medium (Life Technologies, Gaithersburg, Md.) containing 10% fetal Bovine serum (FBS, Sigma, St. Louis, Mo.) and supplemented with 0.2 mg/mL Geneticin (Life Technologies, Gaithersburg, Md.) and 0.4 mg/mL Zeocin (Invitrogen, Carlsbad, Calif.). […] Transfections were performed using lipofectAMINE PLUS reagent as described by the manufacturer (Life Technologies, Gaithersburg, Md.). Experiment • 1. Compound was added to HeLa CD4 CCR5 cells plated in 96 well plates at a cell density of 5×10^4 cells per well in 100 μl Dulbecco's Modified Eagle Medium containing 10% fetal Bovine serum at a concentration of […]. • 2. 100 μl of single-round infectious reporter virus in Dulbecco's Modified Eagle Medium was then added to the plated cells and compound at an approximate multiplicity of infection (MOI) of 0.01, resulting in a final volume of 200 μl per well and a final compound concentration of <10 μM. • 3. Samples were harvested 72 h after infection. • 4. Viral infection was monitored by measuring luciferase expression from viral DNA in the infected cells using a luciferase reporter gene assay kit (Roche Molecular Biochemicals, Indianapolis, Ind.). Infected cell supernatants were removed and 50 μl of Dulbecco's Modified Eagle Medium (without phenol red) and 50 μl of luciferase assay reagent reconstituted as described by the manufacturer (Roche Molecular Biochemicals, Indianapolis, Ind.) was added per well. Luciferase activity was then quantified by measuring luminescence using a Wallac microbeta scintillation counter. • 5. […] An EC50 provides a method for comparing the antiviral potency of the compounds of this invention. The effective concentration for fifty percent inhibition (EC50) was calculated with the Microsoft Excel Xlfit curve fitting software. For each compound, curves were generated from percent inhibition calculated at 10 different concentrations by using a four paramenter logistic model (model 205). Table 1 is the key for the data in Tables 2-4. Cytoxicity assays were conducted with the same HeLa using methodology well known in the art.
(§1) For accuracy, the determined measure of viral inhibition is an EC50; but the minimum plasma concentrations which should be maintained in a patient is generally believed to be at least four or five fold higher. […] Lower is better. • 4) Estimating potential exposure in man by measuring parameters such as AUC and rate of clearance by oral and iv dosing in rats. High exposure and low clearance was desired.
(In general: Tetrazolium assays rely on reduction of a dye to a coloured formazan, in cell work by metabolically active cells.)

A short description of data set [2]: Metabolic stability in pooled human liver microsomes (HLM). The conditions noted are these: pooled human liver microsomes, 3 μM drug; Low/Intermediate/High. How it is done:
Metabolic Stability Studies of compounds in Liver Microsomes. The metabolic stability of compounds were investigated in pooled liver microsomes from humans. The human liver microsomes were obtained from BD Gentest (Lot #16, Woburn, Mass.) with a protein concentration of 20 mg/ml and a total cytochrome P450 (CYP) concentration of 0.55 nmol/mg protein. A stock solution of drug was prepared in acetonitrile at 1 mM. […] The incubation media consisted of potassium phosphate buffer (0.1 M, pH 7.4), liver microsomes (final concentration 0.9 mg/ml), magnesium chloride (0.033 mM), and a NADPH-regenerating system. […] The test compound was pre-incubated in the media for 2 min. The reaction was initiated by the addition of the cofactors. The incubation was carried out at 37° C. for 10 min. The reaction was terminated by drawing an aliquot of 100 μL from the incubation and adding into 200 μL of acetonitrile containing a reference compound as an […] analytical standard. Following vortex-mixing and centrifugation, an aliquot of 10 μL of the supernatant was analyzed by LC/MS.
GUIDELINES can be used to categorized test substances as low, intermediate or highly cleared compounds.
as §1
The stability of compounds were also evaluated to determine metabolic stability when incubated in in vitro preparations of human liver microsomes (HLM). This is one commonly used predictive system for evaluating the potential for human metabolism and projecting clearance rates in man. Compounds with low clearance rates were most desireable.
On the technique in general: Liver microsomes are a subcellular fraction often used to study metabolism.

In data set [3] the test system is HIV-1. The data set is described as follows: HIV-1 single-round infectious luciferase reporter virus (pseudotype) assay in HeLa CD4 CCR5 cells. It counts as cell-based. The essentials:
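HeLa CD4 CCR5 cells (5×10^4/well, DMEM + 10% FBS) were treated with compound (final <10 μM) and infected with single-round luciferase reporter virus made in 293 cells, at MOI ~0.01. Luciferase was read 72 h post infection. EC50 came from 10-concentration percent-inhibition curves fitted to a four-parameter logistic model.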
Background: In a reporter assay the amount or activity of a reporter protein is the signal.

[4] abbreviates: cytotoxicity, Yes = CC50 above 100 uM, No = not.
Where [5] appears, read: Human immunodeficiency virus 1, HeLa-CD4/CCR5, read-out: EC50 Group from TABLE 1, HeLa CD4 CCR5 cells, single-round infectious luciferase reporter virus.
[6] abbreviates: Human immunodeficiency virus 1, HeLa-CD4/CCR5, read-out: EC50 category, HIV-1 single-round reporter virus assay, category 1/2/3 per Table A1 key.
The mark [7] stands for this setting: Human immunodeficiency virus 1, HeLa-CD4/CCR5, read-out: EC50 Group from Table 1, Table 2-1, HeLa CD4 CCR5 cells, single-round luciferase reporter virus.
Setting [8] is: HeLa cells, six days with drug, MTT.
The mark [9] stands for this setting: Human immunodeficiency virus 1, HeLa-CD4/CCR5, read-out: EC50 category, initial pseudotype assay, key in Table A1.

Each structure is given as a SMILES string. Like-named read-outs stand apart in the source and are kept apart here.

Usually EC50 stands for the concentration giving half of the maximal effect.

For `COc1cnc(-c2cc[nH]n2)c2[nH]cc(C(=O)C(=O)N3CCN(C(=O)c4ccccc4)CC3)c12` [Example 39, 1-benzoyl-4-[(4-methoxy-7-(pyrazol-3-yl)-6-azaindol-3-yl)-oxoacetyl]piperazine], the “CC50 > 100 uM” value in data set [1] (setting [4]) is “No”. Further, the “HLM predicted human clearance class” value in data set [2] is recorded as “Intermediate (0.101-0.200)”. For the same compound, the EC50 is less than 1000 nM in data set [3] (setting [5]) and 0.2 to 1000 nM in data set [3] (setting [6]).

On to `COc1cnc(-n2ccc(C)n2)c2[nH]cc(C(=O)C(=O)N3CCN(C(=O)c4ccccc4)[C@H](C)C3)c12` [Example 241, (R)-1-benzoyl-2-methyl-4-[(4-methoxy-7-(3-methyl-pyrazol-1-yl)-6-azaindol-3-yl)-oxoacetyl]piperazine], for which the “CC50 > 100 uM” value in data set [1] (setting [4]) is “Yes”. Further, in data set [2], the “HLM predicted human clearance class” value is listed as “Low (0-0.100)”. Also, the figures for the EC50 in data set [3] (setting [7]) and in data set [3] (setting [6]) were less than 1000 nM and less than 0.2 nM, respectively.

In the case of `COc1cnc(-n2cc(C)nn2)c2[nH]cc(C(=O)C(=O)N3CCN(C(=O)c4ccccc4)CC3)c12` [Example 325], the “CC50 > 100 uM” value in data set [1] (setting [4]) is on record as “Yes”. Also, the “HLM predicted human clearance class” value in data set [2] is reported as “Low (0-0.100)”. Moreover, the figures for the EC50 in data set [3] (setting [5]) and in data set [3] (setting [6]) were less than 1000 nM and less than 0.2 nM, respectively.

Turning to `CN(C)C(=O)c1cc(-c2ncc(F)c3c(C(=O)C(=O)N4CCN(C(=O)c5ccccc5)CC4)c[nH]c23)n[nH]1` [Example 212], the “HLM predicted human clearance class” value in data set [2] was “Low (0-0.100)”. Moreover, the EC50 in data set [3] (setting [5]) was less than 1000 nM; in data set [3] (setting [6]) it was less than 0.2 nM.

Consider `O=C(C(=O)N1CCN(C(=O)c2ccccc2)CC1)c1c[nH]c2c(-c3cnccn3)ncc(F)c12` [Example 95, 1-benzoyl-4-[(4-fluoro-7-(pyrazin-2-yl)-6-azaindol-3-yl)-oxoacetyl]piperazine], for which the “HLM predicted human clearance class” value in data set [2] is “Intermediate (0.101-0.200)”. Moreover, the EC50 was less than 1000 nM in data set [3] (setting [5]) and less than 0.2 nM in data set [3] (setting [6]).

For the compound `COc1cnc(-n2cc(C)cn2)c2[nH]cc(C(=O)C(=O)N3CCN(C(=O)c4ccccc4)CC3)c12` [Example 191, 1-benzoyl-4-[(4-methoxy-7-(4-methylpyrazol-1-yl)-6-azaindol-3-yl)-oxoacetyl]piperazine], the “CC50 > 100 uM” value in data set [1] (setting [4]) was “Yes”. Moreover, the EC50 in data set [3] (setting [5]) was less than 1000 nM; in data set [3] (setting [6]), 0.2 to 1000 nM.

For the compound `COc1cnc(-c2cccn2C)c2[nH]cc(C(=O)C(=O)N3CCN(C(=O)c4ccccc4)CC3)c12` [Example 28, 1-benzoyl-4-[(4-methoxy-7-(11-methyl-pyrrol-2-yl)-6-azaindol-3-yl)oxoacetyl]piperazine], in data set [1] (setting [4]), the “CC50 > 100 uM” value is listed as “No”. The EC50 in data set [3] (setting [5]) was less than 1000 nM; in data set [3] (setting [6]), more than 1000 nM.

With `COc1ncc(-c2ncc(OC)c3c(C(=O)C(=O)N4CCN(C(=O)c5ccccc5)CC4)c[nH]c23)c(OC)n1` [Example 13, 1-benzoyl-4-[(4-methoxy-7-(2,4-dimethoxy-pyrimidin-5-yl)-6-azaindol-3-yl)-oxoacetyl]piperazine], in data set [1] (setting [4]), the “CC50 > 100 uM” value is on record as “Yes”. The EC50 in data set [3] (setting [5]) was less than 1000 nM; in data set [3] (setting [6]), 0.2 to 1000 nM.

As for `CNC(=O)c1ccc(-c2ncc(OC)c3c(C(=O)C(=O)N4CCN(C(=O)c5ccccc5)CC4)c[nH]c23)o1` [Example 94, 1-benzoyl-4-[(4-methoxy-7-(2-methylaminocarbonyl-furan-5-yl)-6-azaindol-3-yl)-oxoacetyl]piperazine], the “CC50 > 100 uM” value in data set [1] (setting [4]) is reported as “Yes”. The concentration for a half-maximal effect (EC50) in data set [3] (setting [5]) was less than 1000 nM; in data set [3] (setting [6]) it was less than 0.2 nM.

Turning to `COc1cnc(-c2cncnc2)c2[nH]cc(C(=O)C(=O)N3CCN(C(=O)c4ccccc4)CC3)c12` [Example 40, 1-benzoyl-4-[(4-methoxy-7-(pyfimidin-5-yl)-6-azaindol-3-yl)-oxoacetyl]piperazine], the “CC50 > 100 uM” value in data set [1] (setting [4]) is given as “No”. In addition, the EC50 was less than 1000 nM in data set [3] (setting [5]) and 0.2 to 1000 nM in data set [3] (setting [6]).

For `COc1cnc(-n2nccn2)c2[nH]cc(C(=O)C(=O)N3CCN(C(=O)c4ccccc4)[C@H](C)C3)c12` [Example 256, (R)-1-benzoyl-2-methyl-4-[(4-methoxy-7-(1,2,3-triazol-2-yl)-6-azaindol-3-yl)-oxoacetyl]piperazine], the “CC50 > 100 uM” value in data set [1] (setting [8]) is listed as “Yes”. Also, the EC50 in data set [3] (setting [7]) was less than 1000 nM; in data set [3] (setting [9]), 0.2 to 1000 nM.

With `O=C(C(=O)N1CCN(C(=O)c2ccccc2)CC1)c1c[nH]c2c(-n3nccn3)ncc(F)c12` [Example 217], the “CC50 > 100 uM” value in data set [1] (setting [8]) is “Yes”. Further, the EC50 in data set [3] (setting [5]) is less than 1000 nM; in data set [3] (setting [9]), 0.2 to 1000 nM.

As for `CNC(=O)c1ccn(-c2ncc(OC)c3c(C(=O)C(=O)N4CCN(C(=O)c5ccccc5)CC4)c[nH]c23)n1` [Example 276, 1-benzoyl-4-[(4-methoxy-7-(3-methylaminocarbonyl-pyrazol-1-yl)-6-azaindol-3-yl)-oxoacetyl]piperazine], the “CC50 > 100 uM” value in data set [1] (setting [4]) was “Yes”. The EC50 is less than 1000 nM in data set [3] (setting [5]) and less than 0.2 nM in data set [3] (setting [6]).

Turning to `O=C(C(=O)N1CCN(C(=O)c2ccccc2)CC1)c1c[nH]c2c(-c3cc[nH]n3)ncc(F)c12` [Example 38, 1-benzoyl-4-[(4-fluoro-7-(pyrazol-3-yl)-6-azaindol-3-yl)-oxoacetyl]piperazine], the “HLM predicted human clearance class” value in data set [2] was “Low (0-0.100)”. The 50% effective concentration (EC50) is less than 1000 nM in data set [3] (setting [5]) and less than 0.2 nM in data set [3] (setting [6]).

As to `CNC(=O)c1cc(-c2ncc(F)c3c(C(=O)C(=O)N4CCN(C(=O)c5ccccc5)CC4)c[nH]c23)n[nH]1` [Example 211], in data set [2], the “HLM predicted human clearance class” value was “Intermediate (0.101-0.200)”. Moreover, the EC50 in data set [3] (setting [5]) is less than 1000 nM; in data set [3] (setting [6]), less than 0.2 nM.

Take `COc1cnc(-n2cccn2)c2[nH]cc(C(=O)C(=O)N3CCN(C(=O)c4ccccc4)CC3)c12` [Example 189, 1-benzoyl-4-[(4-methoxy-7-(1-pyrazolyl)-6-azaindol-3-yl)-oxoacetyl]piperazine]: in data set [1] (setting [4]), the “CC50 > 100 uM” value is given as “Yes”. The concentration giving a half-maximal response (EC50) in data set [3] (setting [5]) was less than 1000 nM; in data set [3] (setting [6]), 0.2 to 1000 nM.

On to `COc1cnc(-c2ccn(C)n2)c2[nH]cc(C(=O)C(=O)N3CCN(C(=O)c4ccccc4)CC3)c12` [Example 22, 1-benzoyl-4-[(4-methoxy-7-(1-methyl-pyrazol-3-yl)-6-azaindol-3-yl)-oxoacetyl]piperazine], for which the “CC50 > 100 uM” value in data set [1] (setting [4]) is listed as “No”. Also, the EC50 was less than 1000 nM in data set [3] (setting [5]) and less than 0.2 nM in data set [3] (setting [6]).

As to `Cn1ncnc1-c1ncc(F)c2c(C(=O)C(=O)N3CCN(C(=O)c4ccccc4)CC3)c[nH]c12` [Example 301], the “CC50 > 100 uM” value in data set [1] (setting [4]) was “Yes”. For the same compound, the 50% effective concentration (EC50) was less than 1000 nM in data set [3] (setting [5]) and 0.2 to 1000 nM in data set [3] (setting [6]).

Values taken from patent US20050090522A1 (priority 2001, published 2005).
